Assay results as given in ChEMBL document CHEMBL4138123, “Design, synthesis and biological evaluation of novel pyrazolochalcones as potential modulators of PI3K/Akt/mTOR pathway and inducers of apoptosis in breast cancer cells” (Eur J Med Chem, 2017).

Experiments:
[1] = test system: HL-60(TB); assay: Cytotoxicity against human HL-60(TB) cells assessed as cell growth at 100 uM after 48 hrs by sulforhodamine B assay relative to control; type: functional; settings: HL-60, 48 h, read-out: Activity
[2] = test system: UO-31; assay: Cytotoxicity against human UO31 cells assessed as cell growth at 1 uM after 48 hrs by sulforhodamine B assay relative to control; type: functional; settings: UO-31, 48 h, read-out: Activity
[3] = test system: OVCAR-8; assay: Cytotoxicity against human OVCAR8 cells assessed as cell growth at 100 uM after 48 hrs by sulforhodamine B assay relative to control; type: functional; settings: OVCAR-8, 48 h, read-out: Activity
[4] = test system: U-251; assay: Cytotoxicity against human U251 cells assessed as cell growth at 100 uM after 48 hrs by sulforhodamine B assay relative to control; type: functional; settings: U-251, 48 h, read-out: Activity
[5] = test system: SK-OV-3; assay: Cytotoxicity against human SKOV3 cells assessed as cell growth at 10 uM after 48 hrs by sulforhodamine B assay relative to control; type: functional; settings: SK-OV-3, 48 h, read-out: Activity
[6] = test system: UACC-257; assay: Cytotoxicity against human UACC257 cells assessed as cell growth at 100 uM after 48 hrs by sulforhodamine B assay relative to control; type: functional; settings: UACC-257, 48 h, read-out: Activity
[7] = test system: NCI-H522; assay: Cytotoxicity against human NCI-H522 cells assessed as cell growth at 0.01 uM after 48 hrs by sulforhodamine B assay relative to control; type: functional; settings: NCI-H522, 48 h, read-out: Activity
[8] = test system: MDA-MB-231; assay: Cytotoxicity against human MDA-MB-231 cells assessed as growth inhibition after 48 hrs by MTT assay; type: functional, cell-based; settings: MDA-MB-231, 48 h
[9] = test system: SNB-19; assay: Cytotoxicity against human SNB19 cells assessed as cell growth at 0.01 uM after 48 hrs by sulforhodamine B assay relative to control; type: functional; settings: SNB-19, 48 h, read-out: Activity
[10] = test system: OVCAR-4; assay: Cytotoxicity against human OVCAR4 cells assessed as growth inhibition after 48 hrs by sulforhodamine B assay; type: functional; settings: OVCAR-4, 48 h
[11] = test system: PC-3; assay: Cytotoxicity against human PC3 cells assessed as growth inhibition after 48 hrs by sulforhodamine B assay; type: functional; settings: PC-3, 48 h
[12] = test system: OVCAR-3; assay: Cytotoxicity against human OVCAR3 cells assessed as cell growth at 0.01 uM after 48 hrs by sulforhodamine B assay relative to control; type: functional; settings: OVCAR-3, 48 h, read-out: Activity
[13] = test system: TK-10; assay: Cytotoxicity against human TK10 cells assessed as cell growth at 10 uM after 48 hrs by sulforhodamine B assay relative to control; type: functional; settings: TK-10, 48 h, read-out: Activity
[14] = test system: OVCAR-5; assay: Cytotoxicity against human OVCAR5 cells assessed as cell growth at 100 uM after 48 hrs by sulforhodamine B assay relative to control; type: functional; settings: OVCAR-5, 48 h, read-out: Activity
[15] = test system: OVCAR-5; assay: Cytotoxicity against human OVCAR5 cells assessed as cell growth at 0.01 uM after 48 hrs by sulforhodamine B assay relative to control; type: functional; settings: OVCAR-5, 48 h, read-out: Activity
[16] = test system: SN12C; assay: Cytotoxicity against human SN12C cells assessed as cell growth at 1 uM after 48 hrs by sulforhodamine B assay relative to control; type: functional; settings: read-out: Activity
[17] = test system: NCI-H322M; assay: Cytotoxicity against human NCI-H322M cells assessed as growth inhibition after 48 hrs by sulforhodamine B assay; type: functional; settings: for CC50: read-out: LC50 (the source's name)
[18] = test system: RXF 393; assay: Cytotoxicity against human RXF393 cells assessed as cell growth at 10 uM after 48 hrs by sulforhodamine B assay relative to control; type: functional; settings: RXF 393, 48 h, read-out: Activity
[19] = test system: RXF 393; assay: Cytotoxicity against human RXF393 cells assessed as cell growth at 1 uM after 48 hrs by sulforhodamine B assay relative to control; type: functional; settings: RXF 393, 48 h, read-out: Activity
[20] = test system: NCI/ADR-RES; assay: Cytotoxicity against human NCI/ADR-RES cells assessed as cell growth at 0.01 uM after 48 hrs by sulforhodamine B assay relative to control; type: functional; settings: read-out: Activity
[21] = test system: COLO 205; assay: Cytotoxicity against human COLO205 cells assessed as cell growth at 0.1 uM after 48 hrs by sulforhodamine B assay relative to control; type: functional; settings: COLO 205, 48 h, read-out: Activity
[22] = test system: HT-29; assay: Cytotoxicity against human HT-29 cells assessed as cell growth at 10 uM after 48 hrs by sulforhodamine B assay relative to control; type: functional; settings: HT-29, 48 h, read-out: Activity
[23] = test system: OVCAR-4; assay: Cytotoxicity against human OVCAR4 cells assessed as cell growth at 100 uM after 48 hrs by sulforhodamine B assay relative to control; type: functional; settings: OVCAR-4, 48 h, read-out: Activity
[24] = test system: NCI-H226; assay: Cytotoxicity against human NCI-H226 cells assessed as growth inhibition after 48 hrs by sulforhodamine B assay; type: functional; settings: NCI-H226, 48 h
[25] = test system: HCC 2998; assay: Cytotoxicity against human HCC2998 cells assessed as cell growth at 0.1 uM after 48 hrs by sulforhodamine B assay relative to control; type: functional; settings: HCC 2998, 48 h, read-out: Activity
[26] = test system: NCI-H460; assay: Cytotoxicity against human NCI-H460 cells assessed as cell growth at 0.1 uM after 48 hrs by sulforhodamine B assay relative to control; type: functional; settings: NCI-H460, 48 h, read-out: Activity
[27] = test system: SN12C; assay: Cytotoxicity against human SN12C cells assessed as cell growth at 0.1 uM after 48 hrs by sulforhodamine B assay relative to control; type: functional; settings: read-out: Activity
[28] = test system: NCI-H23; assay: Cytotoxicity against human NCI-H23 cells assessed as cell growth at 0.01 uM after 48 hrs by sulforhodamine B assay relative to control; type: functional; settings: NCI-H23, 48 h, read-out: Activity
[29] = test system: MCF7; assay: Cytotoxicity against human MCF7 cells assessed as cell growth at 1 uM after 48 hrs by sulforhodamine B assay relative to control; type: functional; settings: MCF7, 48 h, read-out: Activity
[30] = test system: HCT-116; assay: Cytotoxicity against human HCT116 cells assessed as growth inhibition after 48 hrs by sulforhodamine B assay; type: functional; settings: HCT-116, 48 h
[31] = test system: NCI-H23; assay: Cytotoxicity against human NCI-H23 cells assessed as cell growth at 100 uM after 48 hrs by sulforhodamine B assay relative to control; type: functional; settings: NCI-H23, 48 h, read-out: Activity
[32] = test system: UACC-257; assay: Cytotoxicity against human UACC257 cells assessed as cell growth at 1 uM after 48 hrs by sulforhodamine B assay relative to control; type: functional; settings: UACC-257, 48 h, read-out: Activity
[33] = test system: MOLT-4; assay: Cytotoxicity against human MOLT4 cells assessed as cell growth at 0.1 uM after 48 hrs by sulforhodamine B assay relative to control; type: functional; settings: MOLT-4, 48 h, read-out: Activity
[34] = test system: DU-145; assay: Cytotoxicity against human DU145 cells assessed as cell growth at 1 uM after 48 hrs by sulforhodamine B assay relative to control; type: functional; settings: DU-145, 48 h, read-out: Activity
[35] = test system: K562; assay: Cytotoxicity against human K562 cells assessed as cell growth at 10 uM after 48 hrs by sulforhodamine B assay relative to control; type: functional; settings: K562, 48 h, read-out: Activity

SMILES | growth at 100 µM [1] [%] | growth at 1 µM [2] [%] | growth at 100 µM [3] [%] | growth at 100 µM [4] [%] | growth at 10 µM [5] [%] | growth at 100 µM [6] [%] | growth at 0.01 µM [7] [%] | IC50 [8] [µM] | growth at 0.01 µM [9] [%] | LC50 [10] [µM] | TGI [10] [µM] | LC50 [11] [µM] | TGI [11] [µM] | growth at 0.01 µM [12] [%] | growth at 10 µM [13] [%] | growth at 0.01 µM [15] [%] | growth at 1 µM [16] [%] | TGI [17] [µM] | CC50 [17] [µM] | growth at 10 µM [18] [%] | further results
COc1cc(C(=O)/C=C/c2cc(-c3cc(OC)c(OC)c(OC)c3)n[nH]2)cc(OC)c1OC | -33 | 62 | -99 | -99 | 5 | -99 | 101 | 0.7 | 92 | 5.25 | 2.76 | 7.36 | 3.29 | 107 | -98 | 97 | 78 | 4.85 | 14.4 | -88 | growth at 100 µM [14]: -72%; growth at 1 µM [19]: 65%; growth at 0.01 µM [20]: 105%; growth at 0.1 µM [21]: 102%; growth at 10 µM [22]: -86%; growth at 100 µM [23]: -98%; TGI [24]: 3.05 µM; growth at 0.1 µM [25]: 101%; growth at 0.1 µM [26]: 104%; growth at 0.1 µM [27]: 98%; growth at 0.01 µM [28]: 100%; growth at 1 µM [29]: 40%; LC50 [30]: 5.12 µM; TGI [30]: 2.59 µM; growth at 100 µM [31]: -62%; growth at 1 µM [32]: 85%; growth at 0.1 µM [33]: 112%
COc1cc(-c2cc(/C=C/C(=O)c3ccc4c(c3)OCO4)[nH]n2)cc(OC)c1OC | -36 | 81 | -33 | -56 | 33 | -1 | 87 | 1.72 | 94 | > 100 | > 100 | > 100 | 13.7 | 104 | -31 | 97 | 91 | 19.1 | > 100 | -95 | growth at 1 µM [34]: 90%; growth at 10 µM [35]: -1%; growth at 1 µM [19]: 80%; growth at 0.01 µM [20]: 96%; growth at 0.1 µM [21]: 101%; growth at 10 µM [22]: -54%; growth at 100 µM [23]: 3%; LC50 (concentration killing 50% of cells) [24]: > 100 µM; TGI [24]: > 100 µM; growth at 0.1 µM [25]: 102%; growth at 0.1 µM [26]: 105%; growth at 0.1 µM [27]: 96%; growth at 0.01 µM [28]: 96%; growth at 1 µM [29]: 65%; growth at 100 µM [31]: 20%; growth at 1 µM [32]: 81%; growth at 0.1 µM [33]: 103%
COc1cc(-c2cc(/C=C/C(=O)c3ccc(Cl)c(Cl)c3)[nH]n2)cc(OC)c1OC | -33 | 81 | -36 | -5 | 26 | -10 | 92 | 2.1 | 100 | > 100 | 50.9 | > 100 | > 100 | 103 | 46 | 97 | 91 | > 100 | > 100 | 9 | growth at 10 µM [35]: 28%; growth at 100 µM [14]: 16%; growth at 1 µM [19]: 81%; growth at 0.01 µM [20]: 100%; growth at 0.1 µM [21]: 88%; growth at 10 µM [22]: 53%; growth at 100 µM [23]: -22%; LC50 (concentration killing 50% of cells) [24]: > 100 µM; TGI [24]: > 100 µM; growth at 0.1 µM [25]: 97%; growth at 0.1 µM [26]: 105%; growth at 0.1 µM [27]: 96%; growth at 0.01 µM [28]: 95%; growth at 1 µM [29]: 62%; LC50 [30]: > 100 µM; TGI [30]: 21.5 µM; growth at 100 µM [31]: 5%; growth at 1 µM [32]: 90%; growth at 0.1 µM [33]: 102%
